# Experimental data published in patent US20200087709A1, “DIRECT-TO-CONSUMER GENOMIC DIAGNOSTIC DEVICE” (MicroInvestigate, LLC, priority 2018, published 2020).
# Entries after “also recorded” stand apart in the source; their conditions may differ.
# Legend:
# Test in all cases: Antibiotic testing by broth microdilution
# Assay type in all cases: cell-based
# [1] = system: Streptococcus agalactiae SGBS025; conditions: for resistance or susceptibility by broth dilution: S. agalactiae (ermB positive and mef(A) negative); for MIC: Streptococcus agalactiae, SGBS025, 20 h, S. agalactiae SGBS025, known ermB+, mef(A)−, BHI, 37° C., 20 hour incubation
# Description: (§1) All bacteria were tested for their antimicrobial susceptibility by broth microdilution. Ampicillin (Cat #97061-442) was obtained from VWR (Amresco) and Erythromycin (Cat # TCE0751-5G) was obtained from VWR (TCI). Bacteria were maintained on blood agar plates at 37° C., and single colonies selected for inoculation into liquid overnight cultures in sterile Brain-Heart Infusion (BHI, VWR Cat #90003-038). For each culture, 5 mL of BHI media was inoculated in a sealed 15 ml falcon tube for overnight incubation at 37° C. (no shaking). Gentle inversion was used to mix the cultures prior to setting up the assay.
# (§2) For the experiment, 5 μl of overnight culture was mixed with 5 mL of BMI media (1000× dilution) in a sterile tray and gently mixed. This dilute culture was added at […] per well of a 96-well plate pre-loaded with 20 μl of antibiotic solutions ranging, for erythromycin, from 0.5 to 32 μg/ml (10×) to produce the desired final concentrations of 0.05-3.2 μg/ml. For ampicillin, the stocks were 1.25 μg/ml-80 μg/ml resulting in final concentrations of 0.125 μg/ml-8 μg/ml. The 96-well plate was then transferred to a FilterMax F5 microplate reader for a 20 hour incubation at a temperature of 37° C., with readings taken every 30 minutes. A10-second orbital shaking was performed prior to each reading.
# [2] = system: Streptococcus pyogenes MGAS10394; conditions: for resistance or susceptibility by broth dilution: S. pyogenes MGAS10394 (mef(A) positive); for MIC: Streptococcus pyogenes, MGAS10394, 20 h, S. pyogenes MGAS10394, known mef(A)+, BHI, 37° C., 20 hour incubation
# Description: as §1, §2
# [3] = system: Streptococcus pyogenes MGAS6180; conditions: for resistance or susceptibility by broth dilution: S. pyogenes MGAS6180 (mef(A) negative); for MIC: Streptococcus pyogenes, S. pyogenes MGAS6180, known mef(A)−, BHI, 37° C., 20 hour incubation
# Description: as §1, §2
# [4] = system: Streptococcus salivarius patient isolate; conditions: for resistance or susceptibility by broth dilution: S. salivarius (mef(A) positive); for MIC: Streptococcus salivarius, 20 h, S. salivarius patient isolate, discovered mef(A)+, BHI, 37° C., 20 hour incubation
# Description: as §1, §2
Structure (SMILES),resistance or susceptibility by broth dilution [1],MIC [1],resistance or susceptibility by broth dilution [2],MIC [2],resistance or susceptibility by broth dilution [3],MIC [3],resistance or susceptibility by broth dilution [4],MIC [4]
"CC1(C)S[C@@H]2[C@H](NC(=O)[C@H](N)c3ccccc3)C(=O)N2[C@H]1C(=O)O [ampicillin, Ampicillin]",susceptible,< 0.125 µg/mL,susceptible,< 0.125 µg/mL,susceptible,< 0.125 µg/mL,susceptible,< 0.125 µg/mL
"CC[C@H]1OC(=O)[C@H](C)[C@@H](O[C@H]2C[C@@](C)(OC)[C@@H](O)[C@H](C)O2)[C@H](C)[C@@H](O[C@@H]2O[C@H](C)C[C@H](N(C)C)[C@H]2O)[C@](C)(O)C[C@@H](C)C(=O)[C@H](C)[C@@H](O)[C@]1(C)O [erythromycin, Erythromycin]",robust resistance; also recorded: resistant,≥ 3.2 µg/mL,resistant,≥ 3.2 µg/mL,susceptible,< 0.05 µg/mL,resistant,≥ 3.2 µg/mL
